Source: PubChem BioAssay (NCI)
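Cultured in 96-well plates, cells were exposed to test compound for 48 hours across five concentrations. GI50 is the concentration that inhibits growth by half. Definition used: TGI = concentration required for complete inhibition of growth.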

Experiments:
Experiment in all cases: growth of human tumour cells (NCI), 48 h
NCI-H522 lung = test system: NCI-H522 lung
OVCAR-8 ovarian = test system: OVCAR-8 ovarian
RPMI-8226 leukemia = test system: RPMI-8226 leukemia
786-0 renal = test system: 786-0 renal
UO-31 renal = test system: UO-31 renal
SR leukemia = test system: SR leukemia
OVCAR-5 ovarian = test system: OVCAR-5 ovarian
MOLT-4 leukemia = test system: MOLT-4 leukemia
HOP-92 NSCLC = test system: HOP-92 NSCLC
CCRF-CEM leukemia = test system: CCRF-CEM leukemia

| SMILES | TGI (NCI-H522 lung) [µM] | TGI (OVCAR-8 ovarian) [µM] | TGI (RPMI-8226 leukemia) [µM] | TGI (786-0 renal) [µM] | TGI (UO-31 renal) [µM] | TGI (SR leukemia) [µM] | TGI (OVCAR-5 ovarian) [µM] | TGI (MOLT-4 leukemia) [µM] | TGI (HOP-92 NSCLC) [µM] | GI50 (NCI-H522 lung) [µM] | GI50 (OVCAR-8 ovarian) [µM] | GI50 (CCRF-CEM leukemia) [µM] | TGI (CCRF-CEM leukemia) [µM] | GI50 (RPMI-8226 leukemia) [µM] | GI50 (786-0 renal) [µM] | GI50 (UO-31 renal) [µM] | GI50 (SR leukemia) [µM] | GI50 (OVCAR-5 ovarian) [µM] | GI50 (MOLT-4 leukemia) [µM] | GI50 (HOP-92 NSCLC) [µM] |
| --- | --- | --- | --- | --- | --- | --- | --- | --- | --- | --- | --- | --- | --- | --- | --- | --- | --- | --- | --- | --- |
| N=c1nnc(=O)c2c(s1)-n1ncc(C(=O)O)c1NN2 | > 100 | > 100 | > 100 | > 100 | > 100 | > 100 | > 100 | > 100 | > 100 | – | – | – | – | – | – | – | – | – | – | – |
| CC(C)c1ccc(C(=O)Nc2sc3c(c2C#N)CCC(=O)C3)cc1 | 2.16 | > 100 | – | > 21.8 | 0.982 | > 100 | 5.11 | > 100 | 2.4 | 0.248 | 0.431 | 0.189 | > 100 | 0.152 | 0.67 | 0.252 | 0.424 | 0.552 | 0.412 | 0.607 |
| COCCOC(=O)NC(=O)Nc1ccc(/C(=N/O)c2ccc(Cl)cc2)cc1 | 5.58 | 34.7 | 19 | 25.7 | 26.5 | 10.8 | 52.8 | 7.76 | 44.1 | 0.123 | 0.188 | 0.0989 | 28.1 | 0.129 | 0.249 | 0.284 | 0.0546 | 0.308 | 0.109 | 1.4 |
| O=C(Nc1ccc(F)cc1)c1c(NC(=O)C(F)(F)F)sc2c1CCCCC2 | 7.41 | > 100 | 4.14 | 10.5 | 6.9 | > 100 | 13.1 | 15.2 | 1.38 | 1.33 | 2.8 | 1.5 | 15.1 | 0.917 | 2.43 | 1.87 | 1.29 | 2.89 | 2.65 | 0.269 |
| O=S(=O)(NCC1CCC(CNc2ccc(Cl)cc2)CC1)c1ccc(-c2ccccc2)cc1 (configuration not stated) | > 50 | > 50 | > 50 | > 50 | > 50 | > 50 | > 50 | – | > 50 | > 50 | 41.4 | > 50 | > 50 | 12.5 | > 50 | > 50 | > 50 | 29.3 | – | 45.6 |
| CN1CCCN(C)C1c1cc([N+](=O)[O-])ccc1O | > 100 | > 100 | > 100 | > 100 | 64.8 | 59.3 | > 100 | 59.8 | 76.6 | – | – | – | 48.5 | – | – | – | – | – | – | – |
| NC1CCN(c2nc(Nc3cccc(C(F)(F)F)c3)c3c(=O)[nH]ccc3n2)CC1 | 3.57 | 4.91 | 4.84 | 2.55 | 2.62 | 2.82 | 3.44 | 4.8 | 3.04 | 1.76 | 2.06 | 1.26 | 6.88 | 1.91 | 1.24 | 1.19 | 0.774 | 1.68 | 1.05 | 1.44 |
| CCC(=O)C(C)C1=Nc2nnc(CCCCCCCc3nnc4n3C(=O)C(C(C)C(=O)CC)=N4)n2C1=O (configuration not stated) | > 100 | > 100 | > 100 | > 100 | > 100 | > 100 | > 100 | > 100 | > 100 | – | – | – | > 100 | – | – | – | – | – | – | – |
| C(=N\OCc1ccccc1)/c1ncccc1C1OCCO1 | > 100 | > 100 | – | > 100 | > 100 | > 100 | > 100 | > 100 | > 100 | – | – | – | > 100 | – | – | – | – | – | – | – |
| COC(=O)c1c2c(c(C)[n+]([O-])c1C)C(=O)C=C(NCc1ccc(F)c(F)c1)C2=O | 1.35 | 1.13 | 3.23 | 3.58 | 2.35 | 4.06 | 2.49 | 2.12 | 3.61 | 0.286 | 0.291 | 0.409 | 2.47 | 0.783 | 1.35 | 1.11 | 0.373 | 1.14 | 0.588 | 1.56 |
| O=C(NCCCNc1cc(-c2cn(-c3ccccc3)nc2-c2cccc(O)c2)ccn1)c1ccccc1 | 17.1 | 37.7 | 3.3 | 4.69 | 23.6 | 5.35 | 75 | 3.78 | 24.5 | 3.06 | 4.45 | 3.14 | 54.7 | 1.06 | 2.04 | 2.36 | 1.68 | 3.93 | 1.41 | 1.7 |
| O=C1C=C(Br)C(=O)C12CCc1ccccc12 (configuration not stated) | 10.2 | 64.6 | > 37.5 | 42.3 | 33 | 17.3 | 33.3 | 6.89 | 27.3 | – | – | – | > 27.5 | – | – | – | – | – | – | – |
| Cc1nc2sc(C(=O)Nc3cccc4ccccc34)c(N)c2cc1C(=O)c1ccccc1 | > 50 | > 50 | > 50 | > 50 | > 50 | > 50 | > 50 | > 50 | > 50 | 1.52 | 2.15 | 1.66 | > 50 | 2.46 | 2.38 | 2.11 | 0.632 | 2.27 | 2.27 | 6.82 |
| COC1CC2C=C(C)/C=C/C=C/C(=O)NC(c3ccccc3)C/C=C/CCC(O)CC(=O)C2=C1O (configuration not stated) | 0.693 | 0.904 | 0.566 | 1.66 | 1.14 | 0.794 | 1.24 | 1.4 | 0.457 | 0.211 | 0.208 | 0.284 | 1.3 | 0.186 | 0.434 | 0.281 | 0.0956 | 0.357 | 0.364 | 0.141 |
| NNc1cccc(/C=C/c2ccccc2)cc1=O | > 100 | > 100 | > 100 | > 100 | 9.24 | > 100 | > 100 | > 100 | 70.7 | 8.18 | 3.74 | 1.36 | 29.5 | 3.85 | 19.9 | 1.86 | 3.85 | 45.9 | 3.94 | 8.71 |
| CN1NC2(CCCCC2)ON=C1c1ccccc1 | > 100 | > 100 | – | > 100 | – | > 100 | > 100 | > 100 | > 100 | – | – | – | > 100 | – | – | – | – | – | – | – |
| ClC(Cl)c1nc(-c2cccnc2)n2nc(-c3ccccc3)cc2n1 | 6.03 | – | – | > 100 | – | > 100 | 5.43 | > 100 | 5.29 | 1.67 | – | 2.32 | > 100 | – | 3.05 | – | 0.348 | 1.9 | 0.984 | 2.16 |
| CC1=C[C@H]2c3c(c(O)c(O)c4oc5ccccc5c(=O)c34)[C@H](c3cc(O)c(O)c4oc5ccccc5c(=O)c34)[C@H]2C(C)(C)C1 | 5.57 | 46.9 | – | 6.24 | 2.18 | 34.4 | 14.7 | 24.1 | 5.43 | 1.77 | 0.93 | 0.609 | > 100 | – | 1.99 | 0.73 | 0.384 | 3.18 | 0.802 | 1.39 |
| CC(=O)O[C@H]1CC[C@@]2(C)C(=CC[C@H]3[C@@H]4C/C(=C\c5cccc(OCCN6CCOCC6)c5)[C@H](OC(C)=O)[C@@]4(C)CC[C@@H]32)C1 | 27.5 | 20.8 | 9.92 | 7.96 | 19.3 | 18.6 | 56.2 | – | 16.8 | 12.9 | 8.69 | 3.87 | 16.7 | 2.99 | 2.63 | 6.43 | 5.47 | 15 | – | 4.32 |
| CC(C)(C)NCc1cc(C(C)(C)C)cc(-c2ccc(Cl)cc2)c1O | 24.8 | – | 40.5 | 26.8 | 15.1 | 40.4 | 28.2 | – | 28.3 | – | – | – | – | – | – | – | – | – | – | – |
| COC1OC(CO)C(O)C(O)C1Br (configuration not stated) | > 100 | > 100 | > 100 | > 100 | – | > 100 | > 100 | > 100 | > 100 | – | – | – | > 100 | – | – | – | – | – | – | – |
| Nc1ccc2c(c1)NCCN2 | > 100 | > 100 | > 100 | > 100 | > 100 | > 100 | > 100 | 89.7 | > 100 | – | – | – | – | – | – | – | – | – | – | – |
| C=C=C(CC)C(C(=O)OC)N(CC)CC (configuration not stated) | > 100 | > 100 | > 100 | > 100 | > 100 | > 100 | – | > 100 | > 100 | – | – | – | > 100 | – | – | – | – | – | – | – |
